Measurements from ChEMBL document CHEMBL6078692, “Discovery of PF-07265028, A Selective Small Molecule Inhibitor of Hematopoietic Progenitor Kinase 1 (HPK1) for the Treatment of Cancer” (J Med Chem, 2024).
Values after ≈ are worked out from the molar mass of the structure shown.

Tests used:
[1] = Permeability in RRCK cells; format: ADME, cell-based, Canis lupus familiaris, MDCKII-LE; details: dog, MDCK; read-out: permeability
[2] = Intrinsic clearance in human hepatocytes measured per million cells at 1 uM measured for 240 mins by LC-MS/MS analysis; format: ADME, cell-based, Hepatocyte; details: read-out: CLH
[3] = Induction of IL-2 production in human T cells pretreated for 30 mins followed by anti-CD3/CD28 stimulation for 24 hrs by MSD analysis; format: functional, cell-based; details: T-cell
[4] = Cytotoxicity against PBMC (unknown origin) assessed as inhibition of ATP level incubated for 3 days by Cell Titer Glo assay; format: toxicity, cell-based
[5] = Selectivity ratio of IC50 for cytotoxicity against PBMC (unknown origin) assessed as inhibition of ATP level incubated for 3 days by Cell Titer Glo assay to IC50 for inhibition of SLP76 phosphorylation at Ser376 in human Jurkat cells incubated for 30 mins by HTRF assay; format: toxicity, cell-based; details: read-out: Ratio IC50
[6] = target: Mitogen-activated protein kinase kinase kinase kinase 1 (Homo sapiens, UniProt Q92918); assay: Inhibition of full-length recombinant human HPK1 (1 to 182 residues) extracted from baculovirus infected Sf21 cells using phospho-acceptor peptide as substrate incubated for 15 mins in presence of ATP by fluorescence based assay
Chain of Mitogen-activated protein kinase kinase kinase kinase 1 (Q92918 whole entry, the tested form may be a part): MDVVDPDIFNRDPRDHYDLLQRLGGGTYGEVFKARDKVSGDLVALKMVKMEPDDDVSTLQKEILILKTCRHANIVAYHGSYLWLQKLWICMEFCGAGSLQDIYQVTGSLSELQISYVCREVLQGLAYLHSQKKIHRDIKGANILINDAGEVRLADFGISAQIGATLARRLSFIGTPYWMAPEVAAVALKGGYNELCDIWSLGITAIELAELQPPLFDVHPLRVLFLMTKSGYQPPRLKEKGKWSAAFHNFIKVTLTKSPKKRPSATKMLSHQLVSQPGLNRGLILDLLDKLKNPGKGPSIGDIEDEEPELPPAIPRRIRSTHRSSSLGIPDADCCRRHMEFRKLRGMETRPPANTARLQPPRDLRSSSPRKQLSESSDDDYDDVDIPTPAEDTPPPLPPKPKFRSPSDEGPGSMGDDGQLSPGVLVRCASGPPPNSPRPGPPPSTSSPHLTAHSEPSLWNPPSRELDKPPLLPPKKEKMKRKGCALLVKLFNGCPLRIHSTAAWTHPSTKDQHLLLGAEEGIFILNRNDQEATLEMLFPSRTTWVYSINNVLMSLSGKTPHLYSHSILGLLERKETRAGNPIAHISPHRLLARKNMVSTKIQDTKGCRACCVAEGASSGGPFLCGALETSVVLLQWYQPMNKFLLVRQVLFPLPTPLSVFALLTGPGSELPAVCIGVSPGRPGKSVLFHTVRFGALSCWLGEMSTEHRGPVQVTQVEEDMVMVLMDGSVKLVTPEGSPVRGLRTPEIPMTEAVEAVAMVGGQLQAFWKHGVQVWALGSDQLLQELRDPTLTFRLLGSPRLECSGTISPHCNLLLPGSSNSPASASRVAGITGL

[7] = Lipophilicity, logD of compound in octanol/water by shake flask method; format: physicochemical
[8] = species: Homo sapiens; assay: Selectivity ratio of Ki for N-terminal 6xHis-tagged human recombinant full-length LCK to Ki for full-length recombinant human HPK1 (1 to 182 residues) expressed in baculovirus infected Sf21 cells
[9] = Kinetic solubility of compound at pH 7.4 incubated for 24 hrs by MS/MS analysis; format: physicochemical; details: buffer, read-out: Kinetic_solubility
[10] = Stability in human plasma assessed as half life measured for 120 mins by LC-MS/MS analysis; format: ADME, cell-free
[11] = Terminal half life in mouse at 15 mg/kg, po or 1 mg/kg, iv; format: ADME, organism-based; details: in vivo, read-out: beta t1/2 (converted)
[12] = Clearance in mouse at 15 mg/kg, po or 1 mg/kg, iv; format: ADME, organism-based; details: in vivo
[13] = Tmax in mouse at 15 mg/kg, po or 1 mg/kg, iv; format: ADME, organism-based; details: in vivo
[14] = Volume of distribution at steady state in mouse at 15 mg/kg, po or 1 mg/kg, iv; format: ADME, organism-based; details: in vivo
[15] = Oral bioavailability in mouse at 15 mg/kg, po; format: ADME, organism-based; details: in vivo
[16] = Clearance in monkey at 1 mg/kg, po or 0.5 mg/kg, iv; format: ADME, organism-based, Macaca mulatta; details: rhesus monkey, in vivo
[17] = Volume of distribution at steady state in monkey at 1 mg/kg, po or 0.5 mg/kg, iv; format: ADME, organism-based, Macaca mulatta; details: rhesus monkey, in vivo
[18] = Unbound clearance in mouse at 15 mg/kg, po or 1 mg/kg, iv; format: ADME, organism-based; details: in vivo
[19] = Terminal half life in monkey at 1 mg/kg, po or 0.5 mg/kg, iv; format: ADME, organism-based, Macaca mulatta; details: rhesus monkey, in vivo, read-out: beta t1/2 (converted)
[20] = Tmax in monkey at 1 mg/kg, po or 0.5 mg/kg, iv; format: ADME, organism-based, Macaca mulatta; details: rhesus monkey, in vivo
[21] = Oral bioavailability in monkey at 1 mg/kg, po; format: ADME, organism-based, Macaca mulatta; details: rhesus monkey, in vivo
[22] = Unbound clearance in monkey at 1 mg/kg, po or 0.5 mg/kg, iv; format: ADME, organism-based, Macaca mulatta; details: rhesus monkey, in vivo

Row | SMILES | Papp [1] | hepatocyte CLint at 1 µM [2] | EC50 [3] | IC50 [6] | logD [7] | IC50 at 3 days [4] | selectivity ratio at 3 days [5] | Ratio Ki [8] | further results
1 | COc1ccc2c(c1CN)CN(c1cccc(-c3nncn3[C@@H](C)CC(F)(F)F)n1)C2=O | 2.9 ×10⁻⁶ cm/s | < 2.3 µL/min/1e6 cells | – | 2.5 nM | 0.7 | – | – | > 140 | solubility kinetic at 24 h [9]: 372 µM (≈ 166 µg/mL)
2 | COc1ccc(CC#N)cc1C(=O)Nc1cccc(-c2nncn2C(C)C)n1 | – | – | – | 14 nM | 2.3 | – | – | 6 | –
3 | CC[C@H](C)n1cnnc1-c1cccc(NC(=O)c2cccc3c2nc(CN)n3C)n1 | – | – | – | 2.7 nM | 2 | – | – | 37 | half-life [10]: 2.1 h
4 | CC(C)n1cnnc1-c1cccc(NC(=O)c2cccc3c2OCC(N)C3)n1 (stereo not drawn) | – | – | – | 7.7 nM | 1.2 | – | – | > 65 | –
5 | C[C@@H]1CCCN1c1cc2c(c([C@@H](C)N)n1)CN(c1cccc(-c3nnc4n3[C@@H](C)CC4)n1)C2=O | – | – | 62 nM | < 0.05 nM | 2.3 | 1100 nM | 21 | – | –
6 | CC(C)n1cnnc1-c1cccc(N2Cc3c(CO)cccc3C2=O)n1 | – | – | – | 22 nM | 2.1 | – | – | > 13 | solubility kinetic at 24 h [9]: < 0.1 µM
7 | CCC(C)n1cnnc1-c1cccc(NC(=O)c2cccc3c2OCC(N)C3)n1 (stereo not drawn) | – | – | – | 2.2 nM | 1.7 | – | – | > 230 | half-life [10]: 3.38 h
8 | CC(C)n1cnnc1-c1cccc(NC(=O)c2cccc3c2nc(CN)n3C)n1 | – | – | – | 10 nM | 1.7 | – | – | > 45 | –
9 | CC[C@@H](N)c1nc(N2CCC[C@H]2C)cc2c1CN(c1cccc(-c3nnc4n3[C@@H](C)CC4)n1)C2=O | 8.3 ×10⁻⁶ cm/s | 56 µL/min/1e6 cells | 59 nM | – | 2.5 | 800 nM | – | – | half-life [11]: 3.3 h; clearance [12]: 39 mL/min/kg; Tmax [13]: 2 h; Vdss [14]: 4.9 L/kg; bioavailability [15]: 38%; clearance [16]: 14 mL/min/kg; Vdss [17]: 3.7 L/kg; CL free [18]: 690 mL/min/kg; half-life [19]: 4.3 h; solubility kinetic at 24 h [9]: 260 µM (≈ 123 µg/mL); Tmax [20]: 1 h; bioavailability [21]: 20%; CL free [22]: 143 mL/min/kg

Continued, in another order:

Row | Papp [1] | hepatocyte CLint at 1 µM [2] | EC50 [3] | IC50 [6] | logD [7] | SMILES | IC50 at 3 days [4] | selectivity ratio at 3 days [5] | Ratio Ki [8] | further results
10 | 15.1 ×10⁻⁶ cm/s | 23 µL/min/1e6 cells | 38 nM | < 0.06 nM | 2.1 | CCCn1cnnc1-c1cccc(N2Cc3c(cc(N4CCC[C@H]4C)nc3CNC)C2=O)n1 | 1100 nM | 32 | – | –
11 | – | – | 47 nM | < 0.05 nM | 1.9 | CNCc1nc(N(C)C(C)C)cc2c1CN(c1cccc(-c3nnc4n3[C@@H](C)CC4)n1)C2=O | 500 nM | 11 | – | –
12 | 20.4 ×10⁻⁶ cm/s | 11 µL/min/1e6 cells | – | 0.3 nM | 1.6 | CNCc1cc(OC)cc2c1CN(c1cccc(-c3nncn3[C@@H](C)CC(F)(F)F)n1)C2=O | 487 nM | 4 | 210 | solubility kinetic at 24 h [9]: 202 µM (≈ 93 µg/mL)
13 | – | – | 64 nM | 0.07 nM | 1.6 | CNCc1nc(N(C)C(C)C)cc2c1CN(c1cccc(-c3nnc4n3[C@@H](CF)CC4)n1)C2=O | 1300 nM | 25 | – | –
14 | – | – | – | 0.15 nM | 0.8 | CNCc1nc(N(C)C)cc2c1CN(c1cccc(-c3nncn3C(C)C)n1)C2=O | – | – | 1600 | –
15 | 19.3 ×10⁻⁶ cm/s | 15 µL/min/1e6 cells | 74 nM | < 0.13 nM | 2 | CCCn1cnnc1-c1cccc(N2Cc3c(cc(N(C)C(C)C)nc3CNC)C2=O)n1 | 2100 nM | 24 | – | –
16 | – | – | 142 nM | < 0.09 nM | 2.3 | CC[C@@H](N)c1nc(N2CCC[C@H]2C)cc2c1CN(c1cccc(-c3nncn3CC)n1)C2=O | 2200 nM | 42 | – | –
17 | – | – | 116 nM | < 0.06 nM | 2.2 | CC[C@H]1CCc2nnc(-c3cccc(N4Cc5c(cc(N(C)C(C)C)nc5CNC)C4=O)n3)n21 | 500 nM | 13 | – | –
18 | – | – | – | 194 nM | 0.7 | CC(C)n1cnnc1-c1cccc(N2Cc3c(CN)cccc3C2=O)n1 | – | – | > 3 | half-life [10]: > 6 h; solubility kinetic at 24 h [9]: > 600 µM
19 | 27 ×10⁻⁶ cm/s | 10 µL/min/1e6 cells | – | 1.1 nM | 1.1 | CNCc1cc(OC)cc2c1CN(c1cccc(-c3nncn3C(C)C)n1)C2=O | 1700 nM | 5 | > 470 | solubility kinetic at 24 h [9]: 495 µM (≈ 194 µg/mL)
20 | – | – | – | < 0.05 nM | 1.3 | CNCc1nc(N(C)C)cc2c1CN(c1cccc(-c3nncn3[C@@H](C)CC(F)(F)F)n1)C2=O | – | – | > 260 | –
21 | 17.7 ×10⁻⁶ cm/s | 5.2 µL/min/1e6 cells | 97 nM | 0.27 nM | 1 | CCCn1cnnc1-c1cccc(N2Cc3c(cc(N(C)C)nc3CNC)C2=O)n1 | 3500 nM | 29 | – | –
22 | – | – | 154 nM | < 0.17 nM | 2 | CCCn1c(C)nnc1-c1cccc(N2Cc3c(cc(N(C)C(C)C)nc3CNC)C2=O)n1 | > 3300 nM | > 41 | – | –
